Data taken from article PMC8201324, “Pyrazoles and Pyrazolines as Anti-Inflammatory Agents” (Molecules, 2021).
Entries after “also recorded” stand apart in the source; their conditions may differ.

Tested on: adjuvant-induced disease (AID)
Assay: Adjuvant-induced disease (AID)
Type: in vivo, Fisher 344 rats
Settings: AID rats
Experimental: Adjuvant-induced disease (AID) is a good experimental model for rheumatoid arthritis, and is often used in testing agents for anti-inflammatory activity. The compound was administered intraperitoneally on the 1st day, i.e., the day of the administration of Freund’s adjuvant (FA), and once every other day for the following 24 days. Adjuvant arthritis was developed about 14 days post-FA administration. […] The effect of the tested compound on inflammation is shown in Table 7 and the time course of adjuvant arthritis development expressed as arthritic score is shown in Figure 2. In the same experimental model, Indomethacin (IMA) was used as a reference compound.
The animals (Fisher 344 rats), were housed under standard conditions, and received a diet of commercial food pellets and water ad libitum during the maintenance, but were entirely fasted during the experiment period. Both sexes were used, while pregnant females were excluded. Each group was composed of 6–15 animals. Our studies were in accordance with recognized guidelines on animal experimentation (guidelines for the care and use of laboratory animals published by the Greek Government 160/1991, based on EU regulations 86/609). Rats were kept in the Centre of the School of Veterinary Medicine (EL54 BIO42), Aristotle University of Thessaloniki, which is registered by the official state veterinary authorities (presidential degree 56/2013, in harmony with the European Directive 2010/63/EEC). The experimental protocols were approved by the Animal Ethics Committee of the Prefecture of Central Macedonia.
Rats were divided into four groups (five-membered groups of animals were used): groups one, two and three were injected intradermally with 0.1 mL Freund’s adjuvant (FA) into the base of the tails of the animals; group three was the FA control rats; group four was injected with saline, used as an absolute control. Compound 2d (group 1) and indomethacin (group 2) were injected i.p. once every other day for the following 24 days in a dose of 0.00057 mmol/mL/kg body weight (Table 7). Adjuvant arthritis was developed circa 14 days post-FA administration. Arthritic score was measured every 2 days from the commencement (14th day) day. Arthritic score was assessed on the 24th day. For quantification of arthritis (arthritic score); a single point was assigned for each wrist or ankle area and an additional point was given for each involved phalangeal joint, up to a maximum of five points per extremity.
On the 24th day and at least 12 h after the last injection, animals were administered zoxazolamine i.p. […], as an aqueous suspension with a few drops of Tween 80, and the duration of the paralysis were assessed (Table 7) (Figure 2). The experiment was conducted in duplicate.

[1] = 0.00057 mmol/mL/kg i.p. every other day for 24 days

For `Brc1ccc(COc2ccc(C3CC(c4ccccc4)=NN3)cc2)cc1` (stereo not shown) [Compound 2d, 5-(4-((4-bromobenzyl)oxy)phenyl)-3-phenyl-4,5-dihydro-1H-pyrazole], the “Percent change in body weight (g ± SD)” value [1] was 6 ± 0.3 g, the “Percent change in liver weight (g ± SD)” value [1] was 7 ± 0.6 g and the “Zoxazolamine paralysis (minutes ± SD)” value (24th day, zoxazolamine i.p.) was 227 ± 17 min. The “arthritis development / arthritic score” value (i.p. once every other day for 24 days, versus AID rat controls) was “either did not develop or developed very mild arthritis; also recorded: significantly reduced”.
